Reference: US9163003B2, “4-piperidinyl compounds for use as tankyrase inhibitors” (NOVARTIS AG, priority 2011, dated 2015)

How the values were obtained:
[1] = biological target: tankyrase 2 protein PARP domain, TNKS2P (GST-tagged) (Homo sapiens (Human), UniProt Q9H2K2); assay: TNKS2 autoparsylation (AP) biochemical assay, LC/MS detection of nicotinamide; details: 20 nM enzyme, 250 μM NAD+, 60 min room temperature
[2] = biological target: human tankyrase 1 PARP catalytic domain, TNKS1P (GST-tagged) (Homo sapiens (Human), UniProt O95271); assay: TNKS1 autoparsylation (AP) biochemical assay, LC/MS detection of nicotinamide; details: 20 nM enzyme, 250 μM NAD+, 60 min room temperature
Experimental: The human tankyrase 1 PARP catalytic domain, TNKS1P, was cloned into a pDONR221 vector using the Invitrogen Gateway Technology. This entry clone was then subcloned into the destination vector pDEST20 to obtain the N-terminal Glutathione S-transferase (GST)-tagged fusion protein.
The autoparsylation activity of the TNKS 1/2 or PARP1/2 enzymes was measured by the liquid chromatography-mass spectrometry (LC/MS) detection of nicotinamide as readout. Compound activity in inhibiting the TNKS and PARP autoparsylation was evaluated by IC50 measurements.

[3] = test system: Non-small lung cancer ABC-1 cells; assay: Cellular proliferation assay, ABC-1 cells (CellTiter-Glo); assay type: cell-based; details: Homo sapiens, 72 h, 3 days of compound treatment
Experimental: Non-small lung cancer ABC-1 cells were plated at 5000 cells per well in 96-well plates and treated with 8 serial compound dilutions starting from 10 μM as the highest concentration. Viable cells were measured after 3 days of compound treatment using the CellTiter-Glo assay (Promega, G7570). Assay was performed following the manufacture protocol.

Axin2 protein = assay: Cellular ELISA assay for stabilizing the Axin2 protein in SW480 cells; assay type: cell-based; details: Homo sapiens, 24 hrs treatment, read-out: Axin AC50
Experimental: Compound activity in stabilizing the Axin2 protein was measured by Sandwich Enzyme-Linked Immuosorbent (ELISA) assay in the colorectal cell line SW480. 30,000 SW480 cells were seeded per well in 96-well plate and incubated overnight prior to compound treatment. Cells were then treated with compounds in 6-point dilution starting at 10 μM for 24 hrs. Cells were then washed with 100 μL of cold Phosphate Buffer Saline (PBS), and lysed in 125 μl of cold 1× lysis buffer (Cell Signaling Technology, 9803) supplemented with Protease inhibitor (Roche, 11836170) and Phosphatase inhibitors (Sigma, P2850, P5726). For the ELISA assay, anti Axin-2 capture antibody (Strategic Diagnostics) antibody was diluted to a concentration of 1 μg/ml (1:1000) in Carbonate Coating buffer, pH 9.2 (Sigma, C3041-50CAP). 100μ of the diluted anti Axin-2 capture antibody per well was then used to coat the 96-well ELISA plate (Thermo Electron Corp., MicroLite 1 flat bottom plate #7571) overnight at 4° C. Plates were then washed three times with 300 μl/well of wash solution, PBST20 (PBS+0.05% Tween), and blocked with 300 μl/well 1% BSA/PBS (BSA, Millipore Probumin #82-045-1) for 1.5 hours at room temperature while shaking gently. After blocking, plates were then washed three times with 300 μl/well of wash solution. 100 μL of prepared SW480 cell lysate was then added to each well and incubated at room temperature for 2 hours while shaking gently. After washing, 100 μL of Biotinylated anti-Axin2 antibody (CST, 2151) was added to each well and incubated room temperature for 2 hours. 100 μL of Streptavidin-HRP (R&D systems, DY998) diluted 1:200 in 1% BSA/PBS was then added in each well and incubate for 30 mins at R/T in the dark. Signal was detected by Chemiluminescence (Pierce SuperSignal ELISA Femto #3704), and measured on PerkinElmer Wallac 1420 plate reader.

[4] = test system: Wnt ligand-induced signaling; assay: Wnt-responsive Super-TOpFlash (STF) luciferase reporter gene assay in HEK293 cells; assay type: cell-based; details: Homo sapiens, Wnt3A condition medium induced
Experimental: Compound activity in inhibiting Wnt ligand-induced signaling was measured using a Wnt-responsive Super-TOpFlash (STF) luciferase reporter gene assay in HEK293 cells. On day 1 of the assay, cells were plated at a density of 8000 cells per well of 384-well plate in 25 μl medium containing 5% fetal bovine serum (FBS). On the second day, […] condition medium (CM) produced from mouse L cells was added to the cells to induce Wnt signaling, followed by addition of 5 μL of compounds each well in 10-point serial dilution. On the third day, the luciferase activity was measured by the Bright-Glo™ Luciferase Assay System following manufacture's protocol (Promega, E2620). The Inhibition was calculated as: (Maximum Wnt-induced signaling−Sample)/(Maximum Wnt-induced signaling−Background)*100. “Maximum Wnt-induced signaling” is the STF signal level induced by 20% Wnt3A CM without compound; and “Background” is the STF signal level without the addition of Wnt3A CM or compound.

PARP2 = PARP2 (Mus musculus (Mouse), UniProt O88554); assay: PARP2 autoparsylation biochemical assay, LC/MS detection of nicotinamide; details: read-out: PARP2 Ic50, 20 nM enzyme, 250 μM NAD+, 60 min room temperature
Human PARP1 = Human PARP1 (Homo sapiens (Human), UniProt P09874); assay: PARP1 autoparsylation biochemical assay, LC/MS detection of nicotinamide; details: read-out: PARP1 IC50, 20 nM enzyme, 250 μM NAD+, 60 min room temperature
[5] = test system: Herpes Simplex Virus (HSV); details: cited from earlier work

Sequence of PARP2 (O88554 whole entry): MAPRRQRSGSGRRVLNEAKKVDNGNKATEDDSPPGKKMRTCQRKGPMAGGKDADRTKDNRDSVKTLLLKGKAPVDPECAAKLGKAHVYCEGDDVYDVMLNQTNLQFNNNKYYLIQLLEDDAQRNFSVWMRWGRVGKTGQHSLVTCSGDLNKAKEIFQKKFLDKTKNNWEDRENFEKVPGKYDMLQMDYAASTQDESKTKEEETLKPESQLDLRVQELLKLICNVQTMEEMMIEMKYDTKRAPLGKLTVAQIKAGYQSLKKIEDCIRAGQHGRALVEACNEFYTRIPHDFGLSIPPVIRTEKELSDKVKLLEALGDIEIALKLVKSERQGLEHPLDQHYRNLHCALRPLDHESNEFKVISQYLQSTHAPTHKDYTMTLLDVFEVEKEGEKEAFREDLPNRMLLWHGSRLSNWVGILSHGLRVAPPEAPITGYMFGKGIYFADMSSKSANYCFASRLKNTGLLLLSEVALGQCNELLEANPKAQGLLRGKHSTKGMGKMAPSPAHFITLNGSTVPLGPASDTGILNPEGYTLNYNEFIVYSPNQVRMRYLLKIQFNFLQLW
Sequence of Human PARP1 (P09874 whole entry): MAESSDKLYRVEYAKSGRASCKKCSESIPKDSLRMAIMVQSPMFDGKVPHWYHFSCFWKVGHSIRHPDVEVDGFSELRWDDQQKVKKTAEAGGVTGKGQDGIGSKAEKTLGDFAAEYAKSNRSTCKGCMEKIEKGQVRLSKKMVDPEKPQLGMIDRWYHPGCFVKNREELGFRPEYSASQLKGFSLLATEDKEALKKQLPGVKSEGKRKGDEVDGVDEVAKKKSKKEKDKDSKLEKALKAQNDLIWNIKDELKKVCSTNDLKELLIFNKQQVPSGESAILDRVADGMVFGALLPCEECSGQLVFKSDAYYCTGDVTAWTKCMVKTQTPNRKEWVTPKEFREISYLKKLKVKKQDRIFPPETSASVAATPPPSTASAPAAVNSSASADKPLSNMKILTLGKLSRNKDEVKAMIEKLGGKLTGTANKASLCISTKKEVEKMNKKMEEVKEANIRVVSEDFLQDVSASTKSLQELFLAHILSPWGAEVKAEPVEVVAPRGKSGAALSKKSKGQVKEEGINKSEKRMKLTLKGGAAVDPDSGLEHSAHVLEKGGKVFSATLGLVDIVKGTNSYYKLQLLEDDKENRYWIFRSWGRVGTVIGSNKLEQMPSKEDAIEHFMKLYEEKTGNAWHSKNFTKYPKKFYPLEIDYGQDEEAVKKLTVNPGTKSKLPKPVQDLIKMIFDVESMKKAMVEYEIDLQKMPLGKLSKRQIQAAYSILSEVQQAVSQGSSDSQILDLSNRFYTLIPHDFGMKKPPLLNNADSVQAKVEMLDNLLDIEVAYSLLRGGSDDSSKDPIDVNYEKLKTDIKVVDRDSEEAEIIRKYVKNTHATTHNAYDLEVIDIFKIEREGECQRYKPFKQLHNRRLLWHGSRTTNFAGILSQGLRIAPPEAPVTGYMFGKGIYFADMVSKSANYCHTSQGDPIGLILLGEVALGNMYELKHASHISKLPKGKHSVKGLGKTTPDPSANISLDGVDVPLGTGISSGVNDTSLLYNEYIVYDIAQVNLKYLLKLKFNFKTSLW
Sequence of human tankyrase 1 PARP catalytic domain, TNKS1P (GST-tagged) (O95271 1112-1317): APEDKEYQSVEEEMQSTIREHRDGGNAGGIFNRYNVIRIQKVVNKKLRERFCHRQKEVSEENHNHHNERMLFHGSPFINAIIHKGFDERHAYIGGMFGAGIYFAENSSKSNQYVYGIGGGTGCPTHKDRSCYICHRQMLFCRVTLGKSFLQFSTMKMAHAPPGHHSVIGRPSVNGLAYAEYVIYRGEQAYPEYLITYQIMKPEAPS
Sequence of tankyrase 2 protein PARP domain, TNKS2P (GST-tagged) (Q9H2K2 959-1164): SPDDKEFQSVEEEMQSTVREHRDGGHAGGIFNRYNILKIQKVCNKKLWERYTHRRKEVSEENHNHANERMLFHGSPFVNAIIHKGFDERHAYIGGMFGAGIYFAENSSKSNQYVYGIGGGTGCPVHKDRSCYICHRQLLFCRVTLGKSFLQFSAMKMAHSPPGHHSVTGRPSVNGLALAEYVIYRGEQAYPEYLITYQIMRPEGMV

SMILES	IC50 [1]	IC50 [2]	IC50 [3]	AC50 (Axin2 protein)	IC50 [4]	IC50 (PARP2)	IC50 (Human PARP1)	HSV viral growth [5]	HSV viral protein expression [5]
COc1ccc(C(=O)C2CCN([C@H]3CCN(Cc4nc5ccccc(=O)c5[nH]4)C3=O)CC2)cc1C [Example 28, 2-{(S)-3-[4-(4-Methoxy-3-methyl-benzoyl)-piperidin-1-yl]-2-oxo-pyrrolidin-1-ylmethyl}-3H-cycloheptaimidazol-4-one]	7 ± 1 nM	19.5 ± 3.5 nM	0.8 ± 0.9 nM	0.46 ± 0.2 nM	1.5 ± 0.5 nM	2900 ± 300 nM	20200 ± 1500 nM	–	–
Oc1nc(-c2ccc(C(F)(F)F)cc2)nc2c1CSCC2 [XAV939]	–	–	–	–	–	–	–	decreased viral growth	suppressed HSV viral protein expression
